{"source": "patent US20210196724A1", "about": "“BIARYL COMPOSITIONS AND METHODS FOR MODULATING A KINASE CASCADE” (Athenex, Inc., priority 2016, published 2021)", "key": {"[1]": {"test_system": "U87-luc human glioblastoma subcutaneous xenograft", "assay": "U87-luc human glioblastoma subcutaneous xenograft tumor model", "type": "in vivo, athymic nude mice", "text": "The anti-tumor activity of Compound 121, as a single agent, was studied in a U87-luc human glioblastoma subcutaneous xenograft tumor model. Significant endpoints were used to assess the treatment effects on subcutaneous tumor growth, as determined by tumor growth inhibition.\nHuman glioblastoma U87 cells (1×10^6 cells) were implanted into the right flank of athymic nude mice via subcutaneous injection. Dosing was initiated when the average tumor size reached 90-100 mm^3, which was designated as Day 1.\nCompound 121 was dosed at 5 mg/kg once per day through Days 1-7 and dosed 2.5 mg/kg once per day through Days 15-21. A control group of mice (N=7) was administered a vehicle per the same schedule. Tumor volume was determined every 2 to 3 days via bidimensional caliper measurements. Body weight and general observations were recorded.\nThe mice were euthanized once the tumor reached 2000 mm^3 in volume.\nTumor growth inhibition (TGI) was calculated with the following formula:\nTGI=(1−(mean volume of treated tumors)/(mean volume of control tumors))×100."}, "[2]": {"assay": "Brain permeability (brain:plasma ratio)", "type": "in vivo", "conditions": "read-out: Brain:Plasma (B:P) Average", "method": "Brain permeability can be measured by various methods known in the art. For example, brain permeability can be measured by calculating the ratio between the concentration of a compound of the application in the brain and the concentration of the compound in the plasma (i.e., BP ratio). In one aspect, a compound of the application has a B:P ratio of at least 1.0, 1.1, 1.2, 1.3, 1.4, 1.5, 1.6, 1.7, 1.8, 1.9, or 2.0 at 1 hour after administration of the compound to a subject. In one aspect, a compound of the application has a B:P ratio of at least 1.5, 1.6, 1.7, 1.8, 1.9, or 2.0 at 1 hour after administration of the compound to a subject. In one aspect, a compound of the application has a B:P ratio of at least 1.4, 1.5, 1.6, 1.7, 1.8, 1.9, 2.0, 2.1, 2.2, or 2.3 at 2 hours after administration of the compound to a subject. In one aspect, a compound of the application has a B:P ratio of at least 1.9, 2.0, 2.1, 2.2, or 2.3 at 2 hours after administration of the compound to a subject. In one aspect, a compound of the application has a B:P ratio of at least 1.7, 1.8, 1.9, 2.0, 2.1, 2.2, 2.3, 2.4, or 2.5 at 4 hours after administration of the compound to a subject. In one aspect, a compound of the application has a B:P ratio of at least 2.2, 2.3, 2.4, or 2.5 at 4 hours after administration of the compound to a subject."}, "[3]": {"test_system": "GL261 cells, sub-cutaneous", "assay": "Re-challenge of long-term survivors with sub-cutaneous GL261 cells", "type": "in vivo, C57BL/6 mice", "conditions": "long term survival (LTS) mice after Compound 121 oral therapy, not treated in re-challenge phase", "method": "The anti-tumor activity of Compound 121, as a single agent, was studied in the GL261 murine model of human glioblastoma. Murine GL261 glioblastoma cells were injected intra-cranially into syngeneic, immune-competent hosts (C57BL/6). In order for oral therapeutics to be effective, it is required that the therapeutic be able to cross the blood-brain barrier in order to achieve sufficient levels in the brain to exert an anti-tumor effect. Survival was the major endpoint for the study. The mice either succumbed to the tumor or were euthanized based on severity of tumor-dependent morbidity. Mice that achieved long-term survival (>80 days) were re-challenged with a sub-cutaneous injection of GL261 cells to assess the development of a durable immune response to GL261. Mice that underwent the re-challenge phase were not treated with Compound 121.\nRe-challenge phase: Mice surviving past 80 days were injected with GL261 cell subcutaneously on Day 93. A control group (naïve C57BL/6 mice, N=5) were also injected with GL261 cells subcutaneously. Tumor volumes were calculated from bidimensional caliper measurements every 3 to 4 days. Further, all mice were administered oral doses of a Bifidobacterium mixture on three separate occasions. The objective of the administration of Bifidobacterium was to transiently modify the intestinal microbiome as a means to influence the immune response to GL261. […]"}, "[4]": {"assay": "Pharmacokinetic properties after IV and PO administration", "type": "in vivo"}, "[5]": {"conditions": "Day 12, orally dosed 5 mg/kg once per day Days 1-7"}, "[6]": {"conditions": "in vivo, IV Administration (5 mg/kg)"}}, "data": [{"compound": "Cc1cc(N2CCOC[C@@H]2C)ccc1-c1ccc(CC(=O)NCc2ccc(F)cc2)nc1", "note": "[Compound 121]", "values": [{"measurement": "Tumor growth (tumor volumes in individual mice over time)", "setting": "[1]; 5 mg/kg once per day Days 1-7, 2.5 mg/kg once per day Days 15-21", "result": "repressed tumor growth"}, {"measurement": "Mean tumor volume compared to the control group", "setting": "[1]; Day 12, P<0.05", "result": "significantly reduced"}, {"measurement": "% TGI (tumor growth inhibition)", "setting": "[1]; [5]", "result": 76.8, "unit": "%"}, {"measurement": "Mean Tumor Volume ± SEM", "setting": "[1]; [5]", "result": "442.9 ± 67.2", "unit": "mm3"}, {"measurement": "Time to terminal sacrifice (based on tumor volume) compared to control", "setting": "[1]; P<0.05, 5 mg/kg Days 1-7, 2.5 mg/kg Days 15-21", "result": "significantly extended"}, {"measurement": "Kp at 0.25 h", "setting": "[2]; time point 0.25 h", "result": 1.08}, {"measurement": "Kp at 0.5 h", "setting": "[2]; time point 0.5 h", "result": 1.37}, {"measurement": "Kp at 1 h", "setting": "[2]; time point 1 h", "result": 1.53}, {"measurement": "Kp at 2 h", "setting": "[2]; time point 2 h", "result": 1.93}, {"measurement": "Kp at 4 h", "setting": "[2]; time point 4 h", "result": 2.29}, {"measurement": "Kp at 6 h", "setting": "[2]; time point 6 h", "result": 1.66}, {"measurement": "Kp at 8 h", "setting": "[2]; time point 8 h", "result": 1.24}, {"measurement": "Tumor growth after sub-cutaneous re-challenge with GL261 cells", "setting": "[3]", "result": "Tumors failed to grow in both LTS mice"}, {"measurement": "AUCIV (dose-normalized)", "setting": "[4]; IV Administration (5 mg/kg)", "result": 575, "unit": "kg·ng·h/mL/mg"}, {"measurement": "t0.5", "setting": "[4]; IV Administration (5 mg/kg)", "result": 0.959, "unit": "h"}, {"measurement": "F (%) = 100 × AUCpo/AUCIV", "setting": "[4]; PO 20 mg/kg vs IV 5 mg/kg", "result": 34.8, "unit": "%"}, {"measurement": "AUCPO (dose-normalized)", "setting": "[4]; PO Administration (20 mg/kg)", "result": 199, "unit": "kg·ng·h/mL/mg"}, {"measurement": "C0", "setting": "[4]; [6]", "result": 2850, "unit": "ng/mL"}, {"measurement": "clearance", "setting": "[4]; [6]", "result": 29, "unit": "mL/min/kg"}, {"measurement": "Vd", "setting": "[4]; in vivo, IV Administration (5 mg/kg), read-out: Vss", "result": 2.24, "unit": "L/kg"}, {"measurement": "Cmax", "setting": "[4]; in vivo, PO Administration (20 mg/kg)", "result": 2170, "unit": "ng/mL"}]}]}
